From patent US20080234361A1, “Pharmaceutical Compositions, Methods of Formulation Thereof and Methods of Use Thereof” (Rimonest Ltd., priority 2004, published 2008)
Entries after “also recorded” stand apart in the source; their conditions may differ.

Tested on: human PC-3 prostate cancer cells
Experiment: in vitro assay of PC-3 cell invasion across Matrigel artificial membrane
Format: cell-based
Settings: for X ± σ (X = mean number of invading cells, σ = standard deviation): PC-3 cells, HGF 40 ng/ml induced invasion, fixed total concentration 4 micrograms/ml, 72 hr culture, c+ 33 ± 10.7, c− 3 ± 1.7; for inhibition of PC-3 invasion, result in words: total dose 4 micrograms/ml, Kruskal-Wallis test
Source text: In order to determine a possible molecular mechanism of mixtures of conjugated fatty acids and polyphenols according to the present invention, an accepted in vitro assay of cancer cell invasion was employed (Jiang et al., (1995) Regulation of the expression of E-cadherin on human cancer cells by gamma-linolenic acid (GLA). Cancer Res. 55:5043-5048).
Specifically, human PC-3 prostate cancer cells were used as an in vitro model to assess invasion across a Matrigel™ (Becton, Dickenson and Company, Franklin Lakes, N.J.) artificial membrane. Briefly, 6.5 mm diameter polycarbonate membranes (pore size 8 microns) […]. Following gel rehydration, 5×10^4 PC-3 human prostate cancer cells were added to each well. Hepatocyte growth factor/scatter factor (HGF) (Becton, Dickenson & Company, Franklin Lakes, N.J.) was used at 40 ng/ml to induce invasion. The upper chamber contained thested components (i.e. punicic acid, luteolin, caffeic acid or ellagic acid, or a combination of two, three or all four of the chemicals) at a fixed total concentration of 4 micrograms/ml.
Pure compounds (ellagic acid ([…], luteolin [L], caffeic acid [C] and punicic acid […]) were purchased commercially (E, C and L from Sigma Aldrich, Rehovot, Israel; P from Larodan Chemicals; Malmo; Sweden) and assayed as potential invasion inhibitors. The total dose was 4 micrograms/ml in each of 18 trials. The Kruskal-Wallis test was used to measure significance.

| Structure (SMILES) | X ± σ (X = mean number of invading cells, σ = standard deviation) | inhibition of PC-3 invasion, result in words |
| --- | --- | --- |
| O=C(O)/C=C/c1ccc(O)c(O)c1 [C, caffeic acid] | 16.8 ± 3.4 | inhibited invasion significantly; also recorded: much less than that of ellagic acid, punicic acid or luteolin |
| O=c1oc2c(O)c(O)cc3c(=O)oc4c(O)c(O)cc1c4c23 [E, ellagic acid] | 7.4 ± 2.3 | inhibited invasion significantly |
| O=c1cc(-c2ccc(O)c(O)c2)oc2cc(O)cc(O)c12 [L, luteolin] | 9 ± 1.6 | inhibited invasion significantly |
| CCCC\C=C/C=C/C=C\CCCCCCCC(=O)O [P, punicic acid] | 6.4 ± 1.1 | inhibited invasion significantly |
